Assay results: ChEMBL document CHEMBL1201862, “PubChem BioAssay data set” (2004)
Active and inactive are the calls of the source.

Experiments:
[1] = target: G-protein coupled receptor 55 (Homo sapiens, UniProt Q9Y2T6); test: GPR55 antagonists, SAR follow-up, counter-screen for GPR35 antagonist project, imaging, image-based (AID 2397); format: functional
[2] = tested on: Streptococcus sp. 'group A'; test: growth inhibition of control SK(-) GAS strain, dose response, counter-screen for streptokinase expression inhibitor project, luminescence, kanamycin, BacTiterGlo, confirmation (AID 1900); format: functional, organism-based
[3] = target: T1, Tyrosine-protein phosphatase non-receptor type 22 (Homo sapiens, UniProt Q9Y2R2); test: LYP (PTPN22) phosphatase inhibitor potency, SAR follow-up, biochemical, pCAP fluorogenic substrate, fluorescence, set 3 (AID 449727); format: functional
[4] = HIV-1 Env-mediated cell fusion inhibitors, dose response, CCR5-tropic Env (AID 2279); format: functional
Phospholipase A2 = Phospholipase A2 (Homo sapiens, UniProt P04054); format: functional;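 further: confirmatory dose-response counterscreen on phospholipase A2, testing hits that came from an ultra-high-throughput screen for ATG4B inhibitors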
[5] = target: Tyrosine-protein phosphatase non-receptor type 7 (Homo sapiens, UniProt P35236); test: HePTP (PTPN7) phosphatase inhibitor potency, SAR follow-up, biochemical, set 2 (AID 449736); format: functional
[6] = target: G-protein coupled receptor 35 (Homo sapiens, UniProt Q9HC97); test: SAR Analysis for the identification of Selective Antagonists of ERK1/2 Activity in GPR35-Overexpressing U2OS Cells. [Related pubchem assays: 2079, 2058 ]; format: functional, cell-based
[7] = target: Tyrosine-protein phosphatase non-receptor type 12 (Homo sapiens, UniProt Q05209); test: SAR Selectivity Analysis of small molecule inhibitors of PEST using pCAP in a fluorescence assay. [Related pubchem assays (depositor defined):AID1779, AID1784, AID2135]; format: functional
[8] = target: T1, Tyrosine-protein phosphatase non-receptor type 22; test: SAR LYP1 Fluorescent Assay using OMFP substrate for In Vitro dose response studies - Set 3. [Related pubchem assays (depositor defined):AID1779, AID1784, AID2140, AID2686]; format: functional
Cysteine protease ATG4B = target: T2, Cysteine protease ATG4B (Homo sapiens, UniProt Q9Y4P1); format: functional;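 further: Fluorescence-based dose-response confirmation assay measuring inhibition of ATG4B activity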
T2 sequence (Q9Y4P1 whole entry): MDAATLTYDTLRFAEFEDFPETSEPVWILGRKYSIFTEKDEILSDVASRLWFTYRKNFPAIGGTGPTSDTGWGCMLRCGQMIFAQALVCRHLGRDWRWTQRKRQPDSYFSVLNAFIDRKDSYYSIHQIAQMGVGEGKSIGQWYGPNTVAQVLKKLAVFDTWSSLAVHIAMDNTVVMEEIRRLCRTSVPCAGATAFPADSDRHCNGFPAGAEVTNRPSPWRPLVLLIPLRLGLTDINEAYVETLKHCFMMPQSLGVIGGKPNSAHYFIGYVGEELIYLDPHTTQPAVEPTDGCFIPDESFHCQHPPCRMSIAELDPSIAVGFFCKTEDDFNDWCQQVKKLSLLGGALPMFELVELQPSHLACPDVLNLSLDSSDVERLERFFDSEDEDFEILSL

Streptococcus = test: Group A Streptococcus viability loss, dose response, counter-screen for streptokinase expression inhibitor project, luminescence, BacTiterGlo (AID 1915); format: functional, organism-based;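 further: potency for reduction of bacterial viability or growth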
SUMO E1/E2 = SUMO E1/E2 (Homo sapiens, UniProt P63279+Q9UBE0+Q9UBT2); test: SAR analysis of SUMOylation using HTRF in an in-Vitro dose response assay. [Related pubchem assays (depositor defined):AID2006, AID2011, AID2018, AID2069, AID2658]; format: functional
Sequence of SUMO E1/E2 (Q9UBE0 whole entry): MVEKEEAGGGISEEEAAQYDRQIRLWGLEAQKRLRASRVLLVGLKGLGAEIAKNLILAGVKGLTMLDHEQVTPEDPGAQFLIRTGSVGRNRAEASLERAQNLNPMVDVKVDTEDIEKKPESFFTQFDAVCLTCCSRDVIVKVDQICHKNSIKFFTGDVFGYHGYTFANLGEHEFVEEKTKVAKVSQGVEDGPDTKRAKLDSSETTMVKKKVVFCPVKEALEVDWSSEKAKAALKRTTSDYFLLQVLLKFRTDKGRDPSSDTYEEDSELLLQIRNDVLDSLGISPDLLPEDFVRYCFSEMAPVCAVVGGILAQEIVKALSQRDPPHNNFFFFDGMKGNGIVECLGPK
Sequence of SUMO E1/E2 (Q9UBT2 whole entry): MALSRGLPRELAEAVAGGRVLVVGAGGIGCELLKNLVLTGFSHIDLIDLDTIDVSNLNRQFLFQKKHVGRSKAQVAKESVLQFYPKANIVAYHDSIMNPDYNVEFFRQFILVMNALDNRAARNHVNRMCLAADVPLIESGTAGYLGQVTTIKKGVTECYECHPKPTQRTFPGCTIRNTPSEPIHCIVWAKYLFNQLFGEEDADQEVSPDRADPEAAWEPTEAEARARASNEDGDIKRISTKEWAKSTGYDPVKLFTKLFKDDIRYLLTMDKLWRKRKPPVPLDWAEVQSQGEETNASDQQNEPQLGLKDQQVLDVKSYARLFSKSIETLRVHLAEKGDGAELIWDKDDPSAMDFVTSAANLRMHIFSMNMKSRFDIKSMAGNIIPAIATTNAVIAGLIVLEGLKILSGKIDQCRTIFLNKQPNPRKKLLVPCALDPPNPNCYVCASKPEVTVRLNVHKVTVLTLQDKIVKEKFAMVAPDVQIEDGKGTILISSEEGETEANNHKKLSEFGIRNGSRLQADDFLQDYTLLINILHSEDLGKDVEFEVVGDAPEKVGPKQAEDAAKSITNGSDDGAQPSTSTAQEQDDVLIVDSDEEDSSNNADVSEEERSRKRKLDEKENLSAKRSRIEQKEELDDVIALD
Sequence of SUMO E1/E2 (P63279 whole entry): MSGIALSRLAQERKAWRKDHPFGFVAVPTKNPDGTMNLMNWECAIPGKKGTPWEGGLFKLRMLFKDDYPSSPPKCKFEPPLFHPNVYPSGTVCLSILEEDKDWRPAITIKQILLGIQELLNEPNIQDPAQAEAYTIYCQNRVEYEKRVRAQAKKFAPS

T1 sequence (Q9Y2R2 whole entry, the tested form may be a part): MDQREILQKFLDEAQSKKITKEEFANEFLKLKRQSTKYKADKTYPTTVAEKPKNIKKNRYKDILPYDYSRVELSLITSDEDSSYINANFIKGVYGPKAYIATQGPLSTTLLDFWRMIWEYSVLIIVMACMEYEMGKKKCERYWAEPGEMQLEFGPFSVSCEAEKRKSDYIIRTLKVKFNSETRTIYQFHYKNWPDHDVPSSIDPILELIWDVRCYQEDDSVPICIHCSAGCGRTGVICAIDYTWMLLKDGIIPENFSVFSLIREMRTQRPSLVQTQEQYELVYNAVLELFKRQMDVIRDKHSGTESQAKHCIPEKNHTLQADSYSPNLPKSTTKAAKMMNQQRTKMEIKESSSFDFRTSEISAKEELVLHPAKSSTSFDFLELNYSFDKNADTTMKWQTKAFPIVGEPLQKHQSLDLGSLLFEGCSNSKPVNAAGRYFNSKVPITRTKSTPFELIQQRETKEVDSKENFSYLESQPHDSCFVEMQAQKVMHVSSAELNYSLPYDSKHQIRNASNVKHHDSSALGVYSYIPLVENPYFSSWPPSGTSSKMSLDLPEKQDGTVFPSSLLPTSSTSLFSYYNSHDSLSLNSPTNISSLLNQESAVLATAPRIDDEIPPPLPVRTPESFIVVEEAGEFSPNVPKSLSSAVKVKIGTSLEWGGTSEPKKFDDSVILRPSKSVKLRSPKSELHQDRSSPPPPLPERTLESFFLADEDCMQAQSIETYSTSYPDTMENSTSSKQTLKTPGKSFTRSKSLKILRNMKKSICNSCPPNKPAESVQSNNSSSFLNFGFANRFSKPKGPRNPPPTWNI
Sequence of Tyrosine-protein phosphatase non-receptor type 7 (P35236 whole entry): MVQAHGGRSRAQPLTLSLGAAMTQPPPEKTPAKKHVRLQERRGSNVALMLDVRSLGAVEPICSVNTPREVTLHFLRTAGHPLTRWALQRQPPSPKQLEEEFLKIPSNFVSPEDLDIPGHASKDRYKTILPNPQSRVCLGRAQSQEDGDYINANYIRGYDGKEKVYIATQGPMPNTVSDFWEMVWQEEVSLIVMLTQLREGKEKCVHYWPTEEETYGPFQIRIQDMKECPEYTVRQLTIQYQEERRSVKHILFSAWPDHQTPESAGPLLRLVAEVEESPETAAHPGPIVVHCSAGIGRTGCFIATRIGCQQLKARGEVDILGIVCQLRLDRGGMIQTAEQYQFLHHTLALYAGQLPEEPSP
Sequence of Tyrosine-protein phosphatase non-receptor type 12 (Q05209 whole entry): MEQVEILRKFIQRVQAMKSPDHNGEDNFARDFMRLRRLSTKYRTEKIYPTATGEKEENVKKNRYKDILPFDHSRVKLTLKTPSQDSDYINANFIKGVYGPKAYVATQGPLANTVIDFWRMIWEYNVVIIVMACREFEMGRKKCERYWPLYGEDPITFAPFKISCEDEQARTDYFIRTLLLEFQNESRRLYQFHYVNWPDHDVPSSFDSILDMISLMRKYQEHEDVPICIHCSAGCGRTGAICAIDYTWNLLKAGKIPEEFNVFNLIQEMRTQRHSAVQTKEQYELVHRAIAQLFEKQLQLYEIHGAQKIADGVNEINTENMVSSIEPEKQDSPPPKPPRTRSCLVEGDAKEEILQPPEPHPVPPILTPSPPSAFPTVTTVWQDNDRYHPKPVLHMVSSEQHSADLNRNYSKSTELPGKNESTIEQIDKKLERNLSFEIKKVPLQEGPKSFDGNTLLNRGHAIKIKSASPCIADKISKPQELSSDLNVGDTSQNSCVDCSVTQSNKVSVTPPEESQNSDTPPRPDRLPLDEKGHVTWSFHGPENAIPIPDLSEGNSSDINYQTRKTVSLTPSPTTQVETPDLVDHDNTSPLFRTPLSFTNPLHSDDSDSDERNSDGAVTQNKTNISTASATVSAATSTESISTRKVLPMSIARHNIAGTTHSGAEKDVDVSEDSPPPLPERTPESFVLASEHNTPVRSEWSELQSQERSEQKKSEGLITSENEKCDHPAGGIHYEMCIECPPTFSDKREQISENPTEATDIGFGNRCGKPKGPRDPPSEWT
Sequence of G-protein coupled receptor 55 (Q9Y2T6 whole entry): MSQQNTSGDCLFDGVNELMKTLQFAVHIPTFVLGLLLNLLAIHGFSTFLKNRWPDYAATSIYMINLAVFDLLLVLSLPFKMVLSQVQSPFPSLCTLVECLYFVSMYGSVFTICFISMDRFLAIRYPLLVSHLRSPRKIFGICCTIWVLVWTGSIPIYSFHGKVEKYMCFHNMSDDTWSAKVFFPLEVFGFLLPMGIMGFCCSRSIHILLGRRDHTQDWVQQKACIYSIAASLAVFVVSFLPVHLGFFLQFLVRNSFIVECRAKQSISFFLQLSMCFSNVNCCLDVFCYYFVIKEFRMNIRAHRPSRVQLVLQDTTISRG
Sequence of Phospholipase A2 (P04054 whole entry): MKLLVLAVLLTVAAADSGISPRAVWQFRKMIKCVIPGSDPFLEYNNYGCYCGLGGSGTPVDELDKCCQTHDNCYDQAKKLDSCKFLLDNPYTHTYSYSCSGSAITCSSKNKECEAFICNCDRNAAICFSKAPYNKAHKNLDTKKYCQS
Sequence of G-protein coupled receptor 35 (Q9HC97 whole entry): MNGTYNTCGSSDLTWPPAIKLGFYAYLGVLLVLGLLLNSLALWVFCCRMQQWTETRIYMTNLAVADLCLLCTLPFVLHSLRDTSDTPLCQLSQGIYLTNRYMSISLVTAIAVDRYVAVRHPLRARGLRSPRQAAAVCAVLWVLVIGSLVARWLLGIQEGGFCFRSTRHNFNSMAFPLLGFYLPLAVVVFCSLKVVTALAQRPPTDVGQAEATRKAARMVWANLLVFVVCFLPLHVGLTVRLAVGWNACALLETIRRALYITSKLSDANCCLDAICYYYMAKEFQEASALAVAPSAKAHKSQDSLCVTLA

Structure (SMILES) | IC50 [1] | EC50 [2] | IC50 [3] | IC50 [4] | IC50 (Phospholipase A2) | IC50 [5] | IC50 [6] | IC50 [7] | IC50 [8] | IC50 (Cysteine protease ATG4B) | EC50 (Streptococcus) | IC50 (SUMO E1/E2)
CC(/C=C1\SC(=S)N(CCCC(=O)Nc2ccc(C(=O)O)cc2)C1=O)=C\c1ccccc1 | 17.9 µM (inactive) | 0.274 µM (active) | 47.1 µM (active) | 38.9 µM (active) | 5.33 µM (active) | 1.28 µM (active) | 1.59 µM (active) | 8.24 µM (active) | 34.8 µM (active) | 6.85 µM (active) | 1.04 µM (active) | 
S=c1[nH]nc(-c2cc(-c3ccccc3)[nH]n2)n1N=Cc1cccc(Cl)c1 |  |  |  |  |  |  |  |  |  |  |  | 12.5 µM (active)
